Test [1] deals with Aplysia californica AChBP (Aplysia californica, UniProt Q8WSF8). The experiment in a line: biochemical. The class given is binding.
A further test concerns rat α9α10 nAChR. The conditions noted are these: cited from earlier work.

The source of these data is paper PMC6315749 (Marine Drugs, 2018).

What is called IC50 is the midpoint of a concentration-inhibition curve. Low readings indicate inhibition by little substance, high ones a need for much substance.

Sequence of Aplysia californica AChBP (Q8WSF8 18-236 limits assumed): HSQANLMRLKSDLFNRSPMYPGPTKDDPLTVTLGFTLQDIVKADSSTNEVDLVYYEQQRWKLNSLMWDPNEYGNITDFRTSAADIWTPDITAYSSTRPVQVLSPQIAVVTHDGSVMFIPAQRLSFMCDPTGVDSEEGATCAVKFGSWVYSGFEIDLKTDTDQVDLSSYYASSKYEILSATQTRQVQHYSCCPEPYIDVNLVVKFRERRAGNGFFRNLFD

With `N=C(N)NCCC[C@H](NC(=O)[C@@H]1CSSC[C@@H]2NC(=O)[C@@H](NC(=O)CN)CSSC[C@H](NC(=O)[C@H](CCCNC(=N)N)NC(=O)[C@@H]3CCCN3C(=O)[C@H](CC(=O)O)NC(=O)[C@H](CO)NC2=O)C(=O)N[C@@H](CCCNC(=N)N)C(=O)N[C@@H](Cc2ccc(O)cc2)C(=O)N[C@@H](CCCNC(=N)N)C(=O)N1)C(=O)O` [RgIA globular isomer], in test [1], the IC50 is 194 ± 14 nM.
Still for that read-out and setting: as for `N=C(N)NCCC[C@H](NC(=O)[C@@H]1CSSC[C@H](NC(=O)CN)C(=O)N[C@H]2CSSC[C@H](NC(=O)[C@H](CCCNC(=N)N)NC(=O)[C@@H]3CCCN3C(=O)[C@H](CC(=O)O)NC(=O)[C@H](CO)NC2=O)C(=O)N[C@@H](CCCNC(=N)N)C(=O)N[C@@H](Cc2ccc(O)cc2)C(=O)N[C@@H](CCCNC(=N)N)C(=O)N1)C(=O)O` [RgIA ribbon isomer], the figure is 1000 ± 80 nM.
In the case of Vc1.1, the “affinity for rat α9α10 nAChRs” value in the test with rat α9α10 nAChR was “nanomolar”.
